Consider 68 compounds from patent publication US20080269202A1, “Novel 2,3-benzodiazepine derivatives and their use as antipsychotic agents” (Teva Pharmaceutical Industries Ltd., priority 2007, published 2008).

The term melting point denotes the temperature, or range, at which the solid turns liquid. Regarding `COc1cc2c(cc1OC)C(c1ccc([N+](=O)[O-])cc1)=NN(C(=O)N(C)C)C(C)C2` (centres unmarked), the melting point lay within 92 to 96 °C. On to `COc1cc2c(cc1OC)C(c1ccc(N)cc1)=NN(C(=O)NC1CC1)[C@H](C)C2`, for which the melting point lay in the range of 116 to 119 °C. Compound `COc1cc2c(cc1OC)C(c1ccc(N)cc1)=NN(c1ncon1)[C@H](C)C2` [Example 103] gave a melting point of 239 to 242 °C. In the case of `COc1cc2c(cc1OC)C(c1ccc(N)cc1)=NN(C(=O)N1CCCCC1)C(C)C2` (racemic) [Example 178] it was 129 to 132 °C.

`COc1cc2c(cc1OC)C(c1ccc(N)cc1)=NN(C1=NOCS1)[C@@H](C)C2` [Example 119]: the melting point was 134 to 135 °C. As for `COc1cc2c(cc1OC)C(c1ccc(Cl)cc1)=NN(c1ncon1)C(C)C2` (centres unmarked) [Example 49], the figure is 210 to 212 °C; as for `COc1cc2c(cc1OC)C(c1ccc([N+](=O)[O-])c(Cl)c1)=NN(c1nncs1)C(C)C2` (centres unmarked) [Example 21], 214 to 215 °C.

For `COc1cc2c(cc1OC)C(c1ccc(N)cc1)=NN(c1ncc(C)s1)C(C)C2` (racemic) [Example 138], the melting point was in the range of 120 to 122 °C. Regarding `COc1cc2c(cc1OC)C(c1ccc(N)c(C)c1)=NN(c1nncs1)C(C)C2` (racemic) [Example 147], the melting point was 108 to 110 °C. Consider `CCc1nnc(N2N=C(c3ccc(N)cc3)c3cc(OC)c(OC)cc3CC2C)s1` (racemic) [Example 146], for which the melting point was in the range of 208 to 209 °C.

In turn, `COc1cc2c(cc1OC)C(c1ccc(N)cc1)=NN(C(=O)N(C)C)[C@H](C)C2` registered a melting point of 258 to 260 °C. As for `COc1cc2c(cc1OC)C(c1ccc(N)cc1)=NN(c1ncnn1C)C(C)C2` (racemic) [Example 164], the figure is 160 to 162 °C; as for `COc1cc2c(cc1OC)C(c1ccc(N)cc1)=NN(c1nncs1)[C@@H](C)C2` [Example 109], 160 to 162 °C.

On to `CNC(=O)N1N=C(c2ccc(N)c(C)c2)c2cc(OC)c(OC)cc2C[C@@H]1C`, for which the melting point lay within 157 to 159 °C. In the case of `COc1cc2c(cc1OC)C(c1ccc([N+](=O)[O-])cc1)=NN(c1nnc(C)o1)C(C)C2` (centres unmarked) [Example 30] it was 177 to 178 °C.

With `CCOc1cc2c(cc1OCC)C(c1ccc(N)cc1)=NN(c1ncon1)C(C)C2` (racemic) [Example 159], the melting point fell in the range of 158 to 162 °C. In the case of `COc1cc2c(cc1OC)C(c1ccc([N+](=O)[O-])cc1)=NN(c1noc(C)n1)C(C)C2` (centres unmarked) [Example 48] it was 197 to 199 °C; in that of `COc1cc2c(cc1OC)C(c1ccc(N)cc1)=NN(c1ncc(C)o1)C(C)C2` (racemic) [Example 161], 103 to 107 °C. In the case of `COc1cc2c(cc1OC)C(c1ccc([N+](=O)[O-])cc1)=NN(c1nc(C)cs1)C(C)C2` (centres unmarked) [Example 6] it was 194 to 195 °C; in that of `CNC(=O)N1N=C(c2ccccc2N)c2cc(OC)c(OC)cc2CC1C` (racemic), 88 to 91 °C; in that of `COc1cc2c(cc1OC)C(c1ccc(N)cc1)=NN(c1ncn(C)n1)C(C)C2` (racemic) [Example 165], 203 to 205 °C. Consider `CCCNC(=O)N1N=C(c2ccc(N)cc2)c2cc(OC)c(OC)cc2C[C@H]1C`, for which the melting point was 101 to 104 °C. As for `CNC(=O)N1N=C(c2ccc(OC)c(OC)c2)c2cc(OC)c(OC)cc2CC1C` (centres unmarked), the figure is 185 to 186 °C. In the case of `COc1cc2c(cc1OC)C(c1ccc([N+](=O)[O-])c(C)c1)=NN(C1=NOCS1)C(C)C2` (centres unmarked) [Example 35] it was 180 to 182 °C; in that of `COc1cc2c(cc1OC)C(c1ccc(N)c(C)c1)=NN(C1=NOCS1)[C@H](C)C2` [Example 118], 194 to 197 °C; in that of `COc1cc2c(cc1OC)C(c1ccc(N)cc1)=NN(c1nnco1)C(C)C2` (racemic) [Example 150], 100 to 105 °C. In the case of `CNC(=O)N1N=C(c2ccc(F)cc2)c2cc(OC)c(OC)cc2CC1C` (centres unmarked), the melting point lay in the range of 80 to 83 °C. `CNC(=O)Nc1ccc(C2=NN(c3nncs3)C(C)Cc3cc(OC)c(OC)cc32)cc1` (centres unmarked) [Example 191]: the melting point fell in the range of 160 to 162 °C. Compound `COc1cc2c(cc1OC)C(c1ccc(N)cc1)=NN(c1nc(=O)n(C)s1)C(C)C2` (racemic) [Example 152] yielded a melting point of 260 to 262 °C. As for `COc1cc2c(cc1OC)C(c1ccc(N)cc1)=NN(c1nc(C)c(C)s1)[C@H](C)C2` [Example 113], the figure is 122 to 124 °C; as for `CONC(=O)N1N=C(c2ccc(N)cc2)c2cc(OC)c(OC)cc2C[C@H]1C` [Example 135], 143 to 145 °C; as for `CNC(=S)N1N=C(c2ccc(N)cc2)c2cc(OC)c(OC)cc2CC1C` (racemic), 235 to 237 °C. As for `COc1cc2c(cc1OC)C(c1ccc([N+](=O)[O-])cc1)=NN(c1nnc(C)s1)C(C)C2` (centres unmarked) [Example 27], the melting point fell in the range of 228 to 229 °C. Compound `COc1cc2c(cc1OC)C(c1ccc(N)cc1)=NN(C(=O)NC(C)C)C(C)C2` (racemic) came in with a melting point of 109 to 111 °C.

`COc1cc2c(cc1OC)C(c1ccc(Cl)cc1)=NN(c1nncs1)C(C)C2` (centres unmarked) [Example 24] came in with a melting point of 203 to 204 °C. In the case of `CCNC(=O)N1N=C(c2ccc(N)cc2)c2cc(OC)c(OC)cc2C[C@H]1C` it was 122 to 124 °C; in that of `CCNC(=O)N1N=C(c2ccc([N+](=O)[O-])c(C)c2)c2cc(OC)c(OC)cc2CC1C` (centres unmarked) [Example 80], 149 to 150 °C.

Turning to `COc1cc2c(cc1OC)C(c1cccc(Cl)c1)=NN(c1nccs1)C(C)C2` (centres unmarked) [Example 10], the melting point lay within 125 to 126 °C. Regarding `COc1cc2c(cc1OC)C(c1ccc(N)cc1)=NN(c1noc(C)n1)C(C)C2` (racemic) [Example 156], the melting point is 233 to 236 °C. In the case of `COc1cc2c(cc1OC)C(c1ccc(N)cc1)=NN(C1=NC(=O)CS1)C(C)C2` (racemic) [Example 142] it was 166 to 168 °C; in that of `COc1cc2c(cc1OC)C(c1ccccc1)=NN(c1ncon1)C(C)C2` (centres unmarked) [Example 51], 215 to 216 °C; in that of `COc1ccc(C2=NN(c3ncon3)C(C)Cc3cc(OC)c(OC)cc32)cc1OC` (centres unmarked) [Example 53], 188 to 189 °C. On to `CNC(=O)N1N=C(c2cccc(Cl)c2)c2cc(OC)c(OC)cc2CC1C` (centres unmarked), for which the melting point is 90 to 91 °C.

`COc1ccc(C2=NN(c3nncs3)C(C)Cc3cc(OC)c(OC)cc32)cc1OC` (centres unmarked) [Example 25]: the melting point lay in the range of 173 to 174 °C. As for `CNC(=O)N1N=C(c2ccc(N)cc2)c2cc(OC)c(OC)cc2CC1C` (racemic), the figure is 105 to 107 °C. Consider `COc1cc2c(cc1OC)C(c1ccc(N)c(Cl)c1)=NN(C1=NCCS1)[C@H](C)C2` [Example 116], for which the melting point lay in the range of 232 to 234 °C. As for `CCNC(=O)N1N=C(c2ccc([N+](=O)[O-])cc2)c2cc(OC)c(OC)cc2CC1C` (centres unmarked) [79], the figure is 186 to 189 °C. Compound `COc1cc2c(cc1OC)C(c1cccc(Cl)c1)=NN(c1nncs1)C(C)C2` (centres unmarked) [Example 23] showed a melting point of 86 to 88 °C. Take `COc1cc2c(cc1OC)C(c1ccc(N)c(C)c1)=NN(c1noc(C)n1)[C@H](C)C2` [Example 106]: the melting point was in the range of 105 to 108 °C. In the case of `CONC(=O)N1N=C(c2ccc(N)cc2)c2cc(OC)c(OC)cc2CC1C` (racemic) [Example 179] it was 173 to 174 °C; in that of `COc1cc2c(cc1OC)C(c1ccc(N)cc1)=NN(c1nnc(C)s1)C(C)C2` (racemic) [Example 145], 220 to 222 °C; in that of `COc1cc2c(cc1OC)C(c1ccc([N+](=O)[O-])c(Cl)c1)=NN(c1ncon1)C(C)C2` (centres unmarked) [Example 45], 227 to 230 °C. As for `COc1cc2c(cc1OC)C(c1ccc(N)cc1)=NN(C1=NCCS1)C(C)C2` (racemic) [Example 141], the figure is 121 to 123 °C. In the case of `COc1cc2c(cc1OC)C(c1ccc(NC(C)=O)c(Cl)c1)=NN(c1nccs1)[C@H](C)C2` [Example 186] it was 213 to 215 °C; in that of `COc1cc2c(cc1OC)C(c1ccc(N)cc1)=NN(c1nc(C)n(C)n1)C(C)C2` (racemic) [Example 166], 243 to 246 °C. For `COc1cc2c(cc1OC)C(c1ccc(N)cc1)=NN(c1nncs1)[C@H](C)C2` [Example 108], the melting point lay within 159 to 160 °C. As for `CNC(=O)N1N=C(c2ccccc2)c2cc(OC)c(OC)cc2CC1C` (centres unmarked), the figure is 86 to 88 °C; as for `COc1cc2c(cc1OC)C(c1ccc([N+](=O)[O-])cc1)=NN(c1nccs1)C(C)C2` (centres unmarked) [Example 1], 195 to 197 °C.

`COc1cc2c(cc1OC)C(c1ccc(N)c(Cl)c1)=NN(c1nncs1)[C@H](C)C2` [Example 111] registered a melting point of 129 to 134 °C. In the case of `CNC(=O)N1N=C(c2cc(C)c([N+](=O)[O-])c(C)c2)c2cc(OC)c(OC)cc2CC1C` (centres unmarked) [Example 77] it was 158 to 160 °C; in that of `COc1cc2c(cc1OC)C(c1ccc(NC(C)=O)cc1)=NN(c1nc(C)c(C)s1)[C@H](C)C2` [Example 184], 238 to 239 °C. As for `COc1cc2c(cc1OC)C(c1ccc(N)c(C)c1)=NN(c1nccs1)C(C)C2` (racemic) [Example 140], the figure is 109 to 113 °C; as for `COc1cc2c(cc1OC)C(c1ccc([N+](=O)[O-])c(Cl)c1)=NN(c1nncs1)C(C)C2` (centres unmarked) [Example 22], 203 to 206 °C.

With `COc1cc2c(cc1OC)C(c1ccc([N+](=O)[O-])c(C)c1)=NN(c1nccs1)C(C)C2` (centres unmarked) [Example 4], the melting point fell in the range of 172 to 174 °C.

`COc1cc2c(cc1OC)C(c1ccc(N)cc1)=NN(c1ncon1)C(C)C2` (racemic) [Example 155] showed a melting point of 227 to 229 °C. Compound `CNC(=O)N1N=C(c2cccc([N+](=O)[O-])c2)c2cc(OC)c(OC)cc2CC1C` (centres unmarked) displayed a melting point of 83 to 85 °C. The compound `COc1cc2c(cc1OC)C(c1ccc(N)cc1)=NN(c1nnc(C)o1)C(C)C2` (racemic) [Example 151] showed a melting point of 209 to 211 °C. As for `COc1cc2c(cc1OC)C(c1ccc(N)c(C)c1)=NN(c1nccs1)[C@H](C)C2` [Example 114], the figure is 116 to 118 °C.
